{
  "source": "ChEMBL document CHEMBL1131984",
  "about": "“Synthesis and antitumour activity of novel diterpenequinone salvicine and the analogs” (Bioorg Med Chem Lett, 1999)",
  "key": {"SPC-A4": {"tested_on": "SPC-A4", "assay": "In vitro cytotoxic activity against SPC-A4 lung cancer solid tumor cell line by MTT assay (microculture terazolium colorimetric)", "assay_type": "functional, cell-based", "conditions": "Homo sapiens"}, "HL-60": {"tested_on": "HL-60", "assay": "In vitro cytotoxic activity against HL-60 human leukemia cell line by MTT assay (microculture terazolium colorimetric)", "assay_type": "functional, cell-based"}, "SGC-7901": {"tested_on": "SGC-7901", "assay": "In vitro cytotoxic activity against SGC-7901 stomach cancer solid tumor cell line by MTT assay (microculture terazolium colorimetric)", "assay_type": "functional, cell-based", "conditions": "Homo sapiens"}, "P388": {"tested_on": "P388", "assay": "In vitro cytotoxic activity against P388 mouse leukemia cell line by MTT assay (microculture terazolium colorimetric)", "assay_type": "functional, cell-based"}, "Mus musculus [1]": {"tested_on": "Mus musculus", "assay": "Ratio of the tumor weight of mice at the initial stage and the final stage of the experiment was reported at a dose of 0.2 ml/mouse (Q2dx10) administered i.p.; 10/10", "assay_type": "functional"}, "Mus musculus [2]": {"tested_on": "Mus musculus", "assay": "Ratio of the tumor weight of mice at the initial stage and the final stage of the experiment was reported at a dose of 0.2 ml/mouse (Q2dx10) administered i.p.", "assay_type": "functional"}, "Mus musculus [3]": {"tested_on": "Mus musculus", "assay": "In vivo inhibitory activity against human lung adenocarcinoma xenograft LAX-83 in mice at a dose of 2.0 mg/kg (Q2dx10) administered i.p.", "assay_type": "functional", "conditions": "route intraperitoneal"}, "Mus musculus [4]": {"tested_on": "Mus musculus", "assay": "In vivo inhibitory activity against human lung adenocarcinoma xenograft A-549 in mice at a dose of 2.0 mg/kg (Q2dx9) administered i.p.", "assay_type": "functional", "conditions": "A549, ip, route intraperitoneal"}, "Mus musculus [5]": {"tested_on": "Mus musculus", "assay": "Ratio of the tumor weight of mice at the initial stage and the final stage of the experiment was reported at a dose of 0.2 ml/mouse (Q2dx9) administered i.p.", "assay_type": "functional"}, "Mus musculus [6]": {"tested_on": "Mus musculus", "assay": "In vivo inhibitory activity against human lung adenocarcinoma xenograft A-549 in mice at a dose of 2.0 mg/kg (Q2dx10) administered i.p.", "assay_type": "functional", "conditions": "route intraperitoneal"}, "Mus musculus [7]": {"tested_on": "Mus musculus", "assay": "(§1) Ratio of the tumor weight of mice at the initial stage and the final stage of the experiment was reported at a dose of 3.0 mg/kg (day 7)", "assay_type": "functional"}, "Mus musculus [8]": {"tested_on": "Mus musculus", "assay": "as §1", "assay_type": "functional", "remark": "listed apart in the source"}, "Mus musculus [9]": {"tested_on": "Mus musculus", "assay": "In vivo inhibitory activity against murine lewis lung cancer at a dose of 5.0 mg/kg i.p. (day10)", "assay_type": "functional", "conditions": "route intraperitoneal"}, "Mus musculus [10]": {"tested_on": "Mus musculus", "assay": "In vivo inhibitory activity against murine S-180 sarcoma at a dose of 3.0 mg/kg (day 7)", "assay_type": "functional"}, "Mus musculus [11]": {"tested_on": "Mus musculus", "assay": "Ratio of the tumor weight of mice at the initial stage and the final stage of the experiment was reported at a dose of 5.0 mg/kg i.p. (day10)", "assay_type": "functional", "conditions": "route intraperitoneal"}},
  "note": "“And” between values parts separate entries of the source, which are not always exact repeats. Equal entries are not always repeated.",
  "data": [
    {"smiles": "Cc1ccc2c(c1CCC(Br)C(C)(C)O)C(=O)C(=O)C(C(C)C)=C2", "note": "(centres undefined)", "values": [
      {"measurement": "IC50", "setting": "SPC-A4", "result": 1450, "unit": "nM"},
      {"measurement": "IC50", "setting": "HL-60", "result": 4610, "unit": "nM"},
      {"measurement": "IC50", "setting": "SGC-7901", "result": 6120, "unit": "nM"},
      {"measurement": "IC50", "setting": "P388", "result": 3990, "unit": "nM"}
    ]},
    {"smiles": "C=C(C)[C@H](CCc1c(C)ccc2c1C(=O)C(=O)C(C(C)C)=C2)OO", "values": [
      {"measurement": "IC50", "setting": "SPC-A4", "result": 2900, "unit": "nM"},
      {"measurement": "IC50", "setting": "HL-60", "result": 3700, "unit": "nM"},
      {"measurement": "IC50", "setting": "SGC-7901", "result": 2220, "unit": "nM"},
      {"measurement": "IC50", "setting": "P388", "result": 3700, "unit": "nM"}
    ]},
    {"smiles": "CO[C@@]12[C@H](COC(N)=O)C3=C(C(=O)C(C)=C(N)C3=O)N1C[C@@H]1N[C@@H]12", "note": "[MITOMYCIN]", "values": [
      {"measurement": "Tumor weight", "setting": "Mus musculus [1]", "result": 2.64, "unit": "g"},
      {"measurement": "Tumor weight", "setting": "Mus musculus [2]", "result": "1.62 g and 1.71 g and 1.91 g and 1.15 g"},
      {"measurement": "Inhibition", "setting": "Mus musculus [3]", "result": "63.49% and 70.1% and 87.54%"},
      {"measurement": "inhibition in vivo at 2 mg/kg", "setting": "Mus musculus [4]", "result": 79.2, "unit": "%"},
      {"measurement": "Tumor weight", "setting": "Mus musculus [5]", "result": 3.43, "unit": "g"},
      {"measurement": "inhibition in vivo at 2 mg/kg", "setting": "Mus musculus [6]; Mus musculus, A549, ip", "result": 67.9, "unit": "%"},
      {"measurement": "Inhibition", "setting": "Mus musculus [6]; 2 mg/kg", "result": 52.69, "unit": "%"}
    ]},
    {"smiles": "Cc1ccc2c(c1CCC(=O)O)C(=O)C(=O)C(C(C)C)=C2", "values": [
      {"measurement": "IC50", "setting": "SPC-A4", "result": 2620, "unit": "nM"},
      {"measurement": "IC50", "setting": "HL-60", "result": 2840, "unit": "nM"},
      {"measurement": "IC50", "setting": "SGC-7901", "result": 66900, "unit": "nM"},
      {"measurement": "IC50", "setting": "P388", "result": 1460, "unit": "nM"}
    ]},
    {"smiles": "COc1cc([C@@H]2c3cc4c(cc3[C@@H](O[C@@H]3O[C@@H]5CO[C@@H](C)O[C@H]5[C@H](O)[C@H]3O)[C@H]3COC(=O)[C@H]23)OCO4)cc(OC)c1O", "note": "[ETOPOSIDE]", "values": [
      {"measurement": "Tumor weight", "setting": "Mus musculus [7]", "result": "1.09 g and 1.06 g"},
      {"measurement": "Tumor weight", "setting": "Mus musculus [8]", "result": 0.99, "unit": "g"},
      {"measurement": "inhibition in vivo at 5 mg/kg", "setting": "Mus musculus [9]; Mus musculus, Lung, ip, 240 h", "result": 50.3, "unit": "%"},
      {"measurement": "Inhibition", "setting": "Mus musculus [9]; 5 mg/kg", "result": 48.5, "unit": "%"},
      {"measurement": "Inhibition", "setting": "Mus musculus [10]", "result": "40% and 39.4% and 61.3%"},
      {"measurement": "Tumor weight", "setting": "Mus musculus [11]", "result": "0.73 g and 1.03 g"}
    ]},
    {"smiles": "Cc1ccc2cc(C(C)C)c(=O)oc(=O)c2c1CCC(=O)C(C)C", "values": [
      {"measurement": "IC50", "setting": "SPC-A4", "result": 2760, "unit": "nM"},
      {"measurement": "IC50", "setting": "HL-60", "result": 1430, "unit": "nM"},
      {"measurement": "IC50", "setting": "SGC-7901", "result": 89600, "unit": "nM"},
      {"measurement": "IC50", "setting": "P388", "result": 1470, "unit": "nM"}
    ]}
  ]
}
